From US20180305719A1, “Vectors For Integration Of DNA Into Genomes And Methods For Altering Gene Expression And Interrogating Gene Function” (The Board of Trustees of the University of Illinois, priority 2017, published 2018)

Assays:
Assay type in all cases: cell-based, human
NEUROD1 [1] = experiment: Activation of native gene expression in 293T cells, qPCR; details: for induction of NEUROD1: 200 ng/mL doxycycline, NAVIa-edited 293T; for increase in NEUROD1 gene expression: idpTV-edited cells
Procedure: (§1) 293T and HCT116 cells were obtained from the American Tissue Collection Center (ATCC) and were maintained in DMEM supplemented with 10% fetal bovine serum and 1% penicillin/streptomycin at 37° C. with 5% CO2. 293T and HCT116 cells were transfected with Lipofectamine 2000 (Invitrogen) according to manufacturer's instructions. Transfection efficiencies were routinely higher than 80% for 293T cells and higher than 50% for HCT116 cells as determined by fluorescent microscopy following delivery of a control GFP expression plasmid. Induction of gene expression, unless otherwise noted, was carried out with 200 ng/mL doxycycline in DMEM prepared with 10% tetracycline-free FBS for 4 days.
(§2) Cells were harvested and flash-frozen in liquid nitrogen prior to RNA-extraction using the RNeasy Plus RNA isolation kit (Qiagen) according to manufacturer's instructions. cDNA synthesis was carried out using the qScript cDNA Synthesis Kit (Quanta Biosciences) from 1 μg of RNA and reactions were performed as directed by the supplier. For RT-qPCR, SsoFast EvaGreen Supermix (Bio-Rad) was added to cDNA and primers targeting the gene of interest and GAPDH (Table 10). Following 30 s at 95° C., qPCR (5 s at 95° C., 20 s at 55° C., 40 total cycles) preceded melt-curve analysis of the product by the CFX Connect Real-Time System (Bio-Rad). Ct values were used to calculate changes in expression level, relative to GAPDH and control samples by the 2^−ΔΔCt method.
In order to evaluate this gene activation architecture in the context of the human genome, three target genes were selected whose reported levels of activation utilizing CRISPRa are either high (ASCL1, ˜10^3-fold), medium (NEUROD1, ˜10^2-fold), or low (POU5F1, ˜10-fold). The primary sgRNAs targeting the genome were co-transfected into 293T cells with three plasmids containing (1) an expression cassette for active Cas9, (2) customized cspTV, cdpTV or idpTV, and (3) a universal secondary sgRNA. Following transfection, cells with integration of the TV were selected using puromycin and, in cells transfected with the idpTV, gene expression was induced with doxycycline. In parallel, one sgRNA or a mixture of 4 sgRNAs (previously validated for use with CRISPRa) were co-transfected into 293 Ts with dCas9-VPR for comparison of the NAVIa with CRISPRa. Gene expression using an individual sgRNA directing dCas9-VPR to target promoters was increased ˜10-fold for all targets tested but not statistically significant. Utilization of 4 sgRNAs simultaneously activated gene expression more effectively than 1 sgRNA (ASCL1: ˜1800-fold, NEUROD1: ˜2900-fold, POU5F:1 ˜90-fold). […] However, the idpTV (ASCL1: ˜7200-fold, NEUROD1: ˜76000-fold, POU5F1: ˜5370-fold) surpassed activation obtained using dCas9-VPR using 4 sgRNAs (FIG. 14B).

NEUROD1 [2] = experiment: NEUROD1 expression by qPCR in HCT116 and MRC-5 cells
Procedure: as §1, §2
To further explore the trends we observed in 293T cells, NeuroD1 was targeted using the cdpTV in other cell lines.

HCT116 cells = experiment: Quantification of integration efficiency (colonies after antibiotic selection); details: for Avg. Colonies: 450,000 cells transfected
Procedure: HCT116 cells were transfected with individual RGNs targeting either CTTN exon 8 or HLA-DRA, as well as Cas9, one universal RGN, and either one or two transfer vectors with expression cassettes conferring resistance to puromycin or puromycin and hygromycin. A total of 450,000 cells were transfected using 100 ng of each plasmid. The transfection efficiency was ˜55% as determined by FACS following delivery of a control GFP expression plasmid. Three days post transfection, 90% of cells from each well were harvested and replated into 10 cm dishes for selection with the appropriate antibiotics. Cells with monoallelic modifications were selected with puromycin whereas cells with biallelic modifications were selected with puromycin and hygromycin. Media and antibiotics were replenished every three days. Visible colonies appeared after approximately after one week. The number of clones for each transfection was counted and integration efficiency was determined as the ratio of the number of clonal cells derived from each transfection relative to the number of alleles modified by each specific sgRNA, as measured in experimental control samples using the surveyor assay.
Following selection in 10-cm plates with the appropriate antibiotic, total colonies were counted and divided by total cells transfected to obtain the overall editing efficiency of NAVI. This value was then adjusted to account for overall sgRNA editing efficiency, as measured by surveyor nuclease assay. This quantification was performed at 2 different loci using either a single or two antibiotics for selection.

[3] = selection Puromycin + Hygromycin

| Compound | induction of NEUROD1 (NEUROD1 [1]; 12 h) [fold] | induction of NEUROD1 (NEUROD1 [1]; 24 h) [fold] | induction of NEUROD1 (NEUROD1 [1]; 48 h) [fold] | induction of NEUROD1 (NEUROD1 [1]; 96 h) [fold] | increase in NEUROD1 gene expression (NEUROD1 [1]; doxycycline 2 ng/mL, 96 h) [fold] | increase in NEUROD1 gene expression (NEUROD1 [1]; doxycycline 2 μg/mL, 96 h) [fold] | ratio of gene expression between samples with and without doxycycline treatment (NEUROD1 [2]; heterozygous clones) [fold] | ratio of gene expression between samples with and without doxycycline treatment (NEUROD1 [2]; homozygous clones) [fold] | ratio of gene expression between samples with and without doxycycline treatment (NEUROD1 [2]; pooled cells) [fold] | % Efficiency (adjusted by indel %) (HCT116 cells; selection Puromycin) [%] | % Efficiency (colonies/transfected cells) (HCT116 cells; selection Puromycin) [%] | % Efficiency (adjusted by indel %) (HCT116 cells; [3]) [%] | % Efficiency (colonies/transfected cells) (HCT116 cells; [3]) [%] | Avg. Colonies (HCT116 cells; [3]) | Avg. Colonies (HCT116 cells; selection Puromycin) |
| --- | --- | --- | --- | --- | --- | --- | --- | --- | --- | --- | --- | --- | --- | --- | --- |
| C[C@H]1c2cccc(O)c2C(=O)C2=C(O)[C@]3(O)C(=O)C(C(N)=O)=C(O)[C@@H](N(C)C)[C@@H]3[C@@H](O)[C@@H]21 [doxycycline] | ~4000 | ~5000 | ~10000 | ~15000 | ~337 | ~26015 | ~426 | ~1486 | ~22 | – | – | – | – | – | – |
| CTTN exon 8: sgRNA, protospacer GCGCTCTTGTCTACTCGGT, SEQ ID NO 8 (expressed or natural sequence) | – | – | – | – | – | – | – | – | – | 12.00 | 0.38 | 5.00 | 0.16 | 725 | 1726 |
| HLA-DRA: sgRNA, protospacer GCTGTGCTGATGAGCGCTC, SEQ ID NO 9 (expressed or natural sequence) | – | – | – | – | – | – | – | – | – | 26.40 | 0.58 | 4.60 | 0.10 | 453 | 2610 |
